{
  "source": "patent US8153693B2",
  "about": "“Compounds for the selective treatment of the intestinal immuno-inflammatory component of the celiac disease” (Giuliani International Limited, priority 2007, dated 2012)",
  "format_in_all_cases": "cell-based, human",
  "key": {"[1]": {"test_system": "IL-2", "experiment": "Cytokine assay (ELISA) in culture liquids of duodenal biopsy organ cultures: IL-2", "conditions": "for IL-2, PT + 5ASA C, Mean / IL-2, PT + 5ASA C, Median: peptic-tryptic digest of gliadin (PT)", "method": "3 groups of subjects were evaluated. The first (atrophic) group included 29 subjects with serum tests positive to antiendomysium and anti-transglutaminase antibodies, with a neo-diagnosis of celiac disease and gluten-containing diet. The second (Remission) group included 17 celiac disease subjects in clinical remission and gluten-free diet for at least 6 months. The third (Healthy) group included subjects not suffering from the celiac disease but suffering from inflammation of the gastro-enteric tract. […] The biopsies were washed in saline for two minutes at least three times. […] Three different amounts of medium are shared for the ELISA assay of Th1 and Th2 cytokines released in culture media."}, "[2]": {"test_system": "IL-2", "experiment": "Gene expression (mRNA) by RT-PCR in cultured duodenal biopsies of celiac patients: IL-2", "conditions": "PT medium with 5-ASA versus PT medium, 37° C., 48 h; optical density of bands"}, "[3]": {"test_system": "TFN-alpha", "experiment": "Gene expression (mRNA) by RT-PCR in cultured duodenal biopsies of celiac patients: TFN-alpha", "conditions": "PT medium with 5-ASA versus PT medium, 37° C., 48 h; optical density of bands"}, "[4]": {"conditions": "Atrophic population, N 15, Wilcoxon p = 0.012"}, "[5]": {"conditions": "Atrophic population, N 15, Wilcoxon p = 0.03"}, "[6]": {"conditions": "Positive control population, N 7"}, "[7]": {"conditions": "Positive control population, N 7, Wilcoxon p = 0.07"}, "[8]": {"conditions": "Positive control population, N 7, Wilcoxon p = N.S."}, "[9]": {"conditions": "Remission population, N 12, Wilcoxon p = N.S."}},
  "data": [
    {"molecule": "Nc1ccc(O)c(C(=O)O)c1", "note": "[Compound 5ASA, mesalazine]", "values": [
      {"measurement": "IL-2, Medium + 5ASA C, Mean", "setting": "[1]; Atrophic population, N 15", "result": 0.119},
      {"measurement": "IL-2, Medium + 5ASA C, Median", "setting": "[1]; Atrophic population, N 15", "result": 0.0910},
      {"measurement": "IL-2, Difference PT C/PT + 5ASA C, Mean", "setting": "[1]; [4]", "result": 0.0270},
      {"measurement": "IL-2, Difference PT C/PT + 5ASA C, Median", "setting": "[1]; [4]", "result": 0.0410},
      {"measurement": "IL-2, Difference Medium C/Medium + 5ASA C, Mean", "setting": "[1]; [5]", "result": 0.0559},
      {"measurement": "IL-2, Difference Medium C/Medium + 5ASA C, Median", "setting": "[1]; [5]", "result": 0.0490},
      {"measurement": "IL-2, PT + 5ASA C, Mean", "setting": "[1]; Atrophic population, N 15", "result": 0.124},
      {"measurement": "IL-2, PT + 5ASA C, Median", "setting": "[1]; Atrophic population, N 15", "result": 0.0770},
      {"measurement": "IL-2, Medium + 5ASA C, Mean", "setting": "[1]; [6]", "result": 0.356},
      {"measurement": "IL-2, Medium + 5ASA C, Median", "setting": "[1]; [6]", "result": 0.379},
      {"measurement": "IL-2, Difference Medium C/Medium + 5ASA C, Mean", "setting": "[1]; [7]", "result": 0.116},
      {"measurement": "IL-2, Difference Medium C/Medium + 5ASA C, Median", "setting": "[1]; [7]", "result": 0.247},
      {"measurement": "IL-2, Difference PT C/PT + 5ASA C, Mean", "setting": "[1]; [8]", "result": "−0.020"},
      {"measurement": "IL-2, Difference PT C/PT + 5ASA C, Median", "setting": "[1]; [8]", "result": 0.0210},
      {"measurement": "IL-2, PT + 5ASA C, Mean", "setting": "[1]; [6]", "result": 0.521},
      {"measurement": "IL-2, PT + 5ASA C, Median", "setting": "[1]; [6]", "result": 0.468},
      {"measurement": "IL-2, Medium + 5ASA C, Mean", "setting": "[1]; Remission population, N 12", "result": 0.309},
      {"measurement": "IL-2, Medium + 5ASA C, Median", "setting": "[1]; Remission population, N 12", "result": 0.253},
      {"measurement": "IL-2, Difference Medium C/Medium + 5ASA C, Mean", "setting": "[1]; [9]", "result": 0.0061},
      {"measurement": "IL-2, Difference Medium C/Medium + 5ASA C, Median", "setting": "[1]; [9]", "result": "5E−4"},
      {"measurement": "IL-2, Difference PT C/PT + 5ASA C, Mean", "setting": "[1]; [9]", "result": 0.0365},
      {"measurement": "IL-2, Difference PT C/PT + 5ASA C, Median", "setting": "[1]; [9]", "result": 0.0260},
      {"measurement": "IL-2, PT + 5ASA C, Mean", "setting": "[1]; Remission population, N 12", "result": 0.234},
      {"measurement": "IL-2, PT + 5ASA C, Median", "setting": "[1]; Remission population, N 12", "result": 0.194},
      {"measurement": "gene expression (mRNA) of IL-2", "setting": "[2]", "result": "well reduced"},
      {"measurement": "gene expression (mRNA) of TFN-alpha", "setting": "[3]", "result": "well reduced"}
    ]}
  ]
}
